Results as given in patent US9695155B2, “Herbicidal substituted pyrimidinyloxy benzene compounds” (E. I. DU PONT DE NEMOURS AND COMPANY, priority 2013, dated 2017).

Experiments:
blackgrass = assay: Test D postemergence; assay type: in vivo, Alopecurus myosuroides
Excerpt: (§1) Seeds of plant species selected from bluegrass (annual bluegrass, Poa annua), blackgrass (Alopecurus myosuroides), canarygrass (littleseed canarygrass, Phalaris minor), chickweed (common chickweed, Stellaria media), galium (catchweed bedstraw, Galium aparine), bromegrass, downy (downy bromegrass, Bromus tectorum), field poppy (Papaver rhoeas), field violet (Viola arvensis), green foxtail (Setaria viridis), deadnettle (henbit deadnettle, Lamium amplexicaule), Italian ryegrass (Lolium multiflorum), kochia (Kochia scoparia), lambsquarters (Chenopodium album), oilseed rape (Brassica napus), pigweed (Amaranthus retroflexus), chamomile (scentless chamomile, Matricaria inodora), Russian thistle (Salsola kali), speedwell (bird's-eye speedwell, Veronica persica), spring barley (Hordeum vulgare), spring wheat (Triticum aestivum), wild buckwheat (Polygonum convolvulus), wild mustard (Sinapis arvensis), wild oat (Avena fatua), wild radish (Raphanus raphanistrum), windgrass (Apera spica-venti), winter barley (Hordeum vulgare), and winter wheat (Triticum aestivum) were planted into a silt loam soil and treated preemergence with test chemicals formulated in a non-phytotoxic solvent mixture which included a surfactant.
(§2) At the same time, these species were planted in pots containing Redi-Earth® planting medium (Scotts Company, 14111 Scottslawn Road, Marysville, Ohio 43041) comprising spaghnum peat moss, vermiculite, wetting agent and starter nutrients and treated with postemergence applications of the test chemicals formulated in the same manner. Plants ranged in height from 2 to 18 cm (1- to 4-leaf stage). Treated plants and controls were maintained in a controlled growth environment for 7 to 21 days after which time all species were compared to controls and visually evaluated. Plant response ratings, summarized in Table D, are based on a scale of 0 to 100 where 0 is no effect and 100 is complete control. A dash (-) response means no test result.

chamomile = assay: Test D preemergence; assay type: in vivo, Matricaria inodora
Summary of the method: (§3)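 After treatment, visual injury versus untreated plants, 0–100 scale, assessed at 7 to 21 days. Applications were made preemergence to silt loam-sown seed and postemergence to seedlings 2–18 cm high in potting medium.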

wild radish = assay: Test D postemergence; assay type: in vivo, Raphanus raphanistrum
Excerpt: as §1, §2

winter wheat [1] = assay: Test D preemergence; assay type: in vivo, Triticum aestivum
Summary of the method: as §3

spring wheat [2] = assay: Test D preemergence; assay type: in vivo, Triticum aestivum
Summary of the method: as §3

winter wheat [3] = assay: Test D postemergence; assay type: in vivo, Triticum aestivum
Summary of the method: as §3

spring wheat [4] = assay: Test D postemergence; assay type: in vivo, Triticum aestivum
Summary of the method: as §3

chickweed = assay: Test D postemergence; assay type: in vivo, Stellaria media
Excerpt: as §1, §2

[5] = 16 g ai/ha, scale 0 (no effect) to 100 (complete control)
[6] = 31 g ai/ha, scale 0 to 100 (0 no effect, 100 complete control)
[7] = 62 g ai/ha, scale 0 to 100 (0 no effect, 100 complete control)
[8] = 125 g ai/ha, scale 0 to 100 (0 no effect, 100 complete control)
[9] = 31 g ai/ha, scale 0 (no effect) to 100 (complete control)

SMILES: FCc1cccc(Oc2ncc(Cl)cn2)c1-n1cc(I)cn1 [Compound 245]
- Plant response rating, Blackgrass (blackgrass; Postemergence, 62 g ai/ha, scale 0 to 100 (0 no effect, 100 complete control)): 20
- Plant response rating, Blackgrass (blackgrass; Postemergence, 31 g ai/ha, scale 0 to 100 (0 no effect, 100 complete control)): 10
- Plant response rating, Blackgrass (blackgrass; Postemergence, 125 g ai/ha, scale 0 to 100 (0 no effect, 100 complete control)): 25
- Plant response rating, Blackgrass (blackgrass; postemergence, 16 g ai/ha, scale 0 to 100, 0 no effect, 100 complete control): 5
- Plant response rating, Chamomile (chamomile; [5]): 25
- Plant response rating, Chamomile (chamomile; 31 g ai/ha, scale 0-100): 30
- Plant response rating, Chamomile (chamomile; 62 g ai/ha, scale 0-100): 55
- Plant response rating, Chamomile (chamomile; 125 g ai/ha, scale 0-100): 100
- Plant response rating, Radish, Wild (wild radish; 16 g ai/ha, scale 0-100): 35
- Plant response rating, Radish, Wild (wild radish; [6]): 45
- Plant response rating, Radish, Wild (wild radish; [7]): 55
- Plant response rating, Radish, Wild (wild radish; [8]): 85
- Plant response rating, Wheat, Winter (winter wheat [1]; [5]): 10
- Plant response rating, Wheat, Winter (winter wheat [1]; [9]): 15
- Plant response rating, Wheat, Winter (winter wheat [1]; 125 g ai/ha, scale 0-100): 30
- Plant response rating, Wheat, Spring (spring wheat [2]; [5]): 5
- Plant response rating, Wheat, Spring (spring wheat [2]; [9]): 10
- Plant response rating, Wheat, Spring (spring wheat [2]; 125 g ai/ha, scale 0-100): 20
- Plant response rating, Wheat, Winter (winter wheat [3]; 16 g ai/ha, scale 0-100): 5
- Plant response rating, Wheat, Winter (winter wheat [3]; [6]): 10
- Plant response rating, Wheat, Winter (winter wheat [3]; [7]): 10
- Plant response rating, Wheat, Winter (winter wheat [3]; [8]): 10
- Plant response rating, Wheat, Spring (spring wheat [4]; 16 g ai/ha, scale 0-100): 10
- Plant response rating, Wheat, Spring (spring wheat [4]; [6]): 10
- Plant response rating, Wheat, Spring (spring wheat [4]; [7]): 10
- Plant response rating, Wheat, Spring (spring wheat [4]; [8]): 20
- Plant response rating, Chickweed (chickweed; 16 g ai/ha, scale 0-100): 45
- Plant response rating, Chickweed (chickweed; [6]): 75
- Plant response rating, Chickweed (chickweed; [7]): 95
- Plant response rating, Chickweed (chickweed; [8]): 98

SMILES: N#Cc1cccc(Oc2ncc(Cl)cn2)c1-n1cc(Br)cn1 [Compound 52, 2-(4-bromo-1H-pyrazol-1-yl)-3-[(5-chloro-2-pyrimidinyl)oxy]benzonitrile]
- pest or weed control at 62 g/ha (blackgrass; Alopecurus myosuroides, post-emergence, Postemergence, 62 g ai/ha, scale 0 to 100 (0 no effect, 100 complete control), read-out: Plant response rating, Blackgrass): 30%
- pest or weed control at 31 g/ha (blackgrass; Alopecurus myosuroides, post-emergence, Postemergence, 31 g ai/ha, scale 0 to 100 (0 no effect, 100 complete control), read-out: Plant response rating, Blackgrass): 30%
- pest or weed control at 125 g/ha (blackgrass; Alopecurus myosuroides, post-emergence, Postemergence, 125 g ai/ha, scale 0 to 100 (0 no effect, 100 complete control), read-out: Plant response rating, Blackgrass): 40%
- pest or weed control at 250 g/ha (blackgrass; Alopecurus myosuroides, post-emergence, Postemergence, 250 g ai/ha, scale 0 to 100 (0 no effect, 100 complete control), read-out: Plant response rating, Blackgrass): 65%
- pest or weed control at 31 g/ha (chamomile; Tripleurospermum inodorum, pre-emergence, 31 g ai/ha, scale 0-100, read-out: Plant response rating, Chamomile): 15%
- pest or weed control at 62 g/ha (chamomile; Tripleurospermum inodorum, pre-emergence, 62 g ai/ha, scale 0-100, read-out: Plant response rating, Chamomile): 65%
- pest or weed control at 125 g/ha (chamomile; Tripleurospermum inodorum, pre-emergence, 125 g ai/ha, scale 0-100, read-out: Plant response rating, Chamomile): 60%
- pest or weed control at 250 g/ha (chamomile; Tripleurospermum inodorum, pre-emergence, 250 g ai/ha, scale 0-100, read-out: Plant response rating, Chamomile): 80%
- pest or weed control at 31 g/ha (wild radish; Raphanus raphanistrum, post-emergence, 31 g ai/ha, scale 0 to 100 (0 no effect, 100 complete control), read-out: Plant response rating, Radish, Wild): 65%
- pest or weed control at 62 g/ha (wild radish; Raphanus raphanistrum, post-emergence, 62 g ai/ha, scale 0 to 100 (0 no effect, 100 complete control), read-out: Plant response rating, Radish, Wild): 70%
- pest or weed control at 125 g/ha (wild radish; Raphanus raphanistrum, post-emergence, 125 g ai/ha, scale 0 to 100 (0 no effect, 100 complete control), read-out: Plant response rating, Radish, Wild): 80%
- pest or weed control at 250 g/ha (wild radish; Raphanus raphanistrum, post-emergence, 250 g ai/ha, scale 0 to 100 (0 no effect, 100 complete control), read-out: Plant response rating, Radish, Wild): 90%
- plant injury at 31 g/ha (winter wheat [1]; Triticum aestivum, pre-emergence, 31 g ai/ha, scale 0 (no effect) to 100 (complete control), read-out: Plant response rating, Wheat, Winter): 0%
- plant injury at 62 g/ha (winter wheat [1]; Triticum aestivum, pre-emergence, 62 g ai/ha, scale 0-100, read-out: Plant response rating, Wheat, Winter): 0%
- plant injury at 125 g/ha (winter wheat [1]; Triticum aestivum, pre-emergence, 125 g ai/ha, scale 0-100, read-out: Plant response rating, Wheat, Winter): 25%
- plant injury at 250 g/ha (winter wheat [1]; Triticum aestivum, pre-emergence, 250 g ai/ha, scale 0-100, read-out: Plant response rating, Wheat, Winter): 35%
- plant injury at 31 g/ha (spring wheat [2]; Triticum aestivum, pre-emergence, 31 g ai/ha, scale 0 (no effect) to 100 (complete control), read-out: Plant response rating, Wheat, Spring): 0%
- plant injury at 62 g/ha (spring wheat [2]; Triticum aestivum, pre-emergence, 62 g ai/ha, scale 0-100, read-out: Plant response rating, Wheat, Spring): 0%
- plant injury at 125 g/ha (spring wheat [2]; Triticum aestivum, pre-emergence, 125 g ai/ha, scale 0-100, read-out: Plant response rating, Wheat, Spring): 0%
- plant injury at 250 g/ha (spring wheat [2]; Triticum aestivum, pre-emergence, 250 g ai/ha, scale 0-100, read-out: Plant response rating, Wheat, Spring): 30%
- plant injury at 31 g/ha (winter wheat [3]; Triticum aestivum, post-emergence, 31 g ai/ha, scale 0 to 100 (0 no effect, 100 complete control), read-out: Plant response rating, Wheat, Winter): 10%
- plant injury at 62 g/ha (winter wheat [3]; Triticum aestivum, post-emergence, 62 g ai/ha, scale 0 to 100 (0 no effect, 100 complete control), read-out: Plant response rating, Wheat, Winter): 15%
- plant injury at 125 g/ha (winter wheat [3]; Triticum aestivum, post-emergence, 125 g ai/ha, scale 0 to 100 (0 no effect, 100 complete control), read-out: Plant response rating, Wheat, Winter): 20%
- plant injury at 250 g/ha (winter wheat [3]; Triticum aestivum, post-emergence, 250 g ai/ha, scale 0 to 100 (0 no effect, 100 complete control), read-out: Plant response rating, Wheat, Winter): 25%
- plant injury at 31 g/ha (spring wheat [4]; Triticum aestivum, post-emergence, 31 g ai/ha, scale 0 to 100 (0 no effect, 100 complete control), read-out: Plant response rating, Wheat, Spring): 5%
- plant injury at 62 g/ha (spring wheat [4]; Triticum aestivum, post-emergence, 62 g ai/ha, scale 0 to 100 (0 no effect, 100 complete control), read-out: Plant response rating, Wheat, Spring): 10%
- plant injury at 125 g/ha (spring wheat [4]; Triticum aestivum, post-emergence, 125 g ai/ha, scale 0 to 100 (0 no effect, 100 complete control), read-out: Plant response rating, Wheat, Spring): 10%
- plant injury at 250 g/ha (spring wheat [4]; Triticum aestivum, post-emergence, 250 g ai/ha, scale 0 to 100 (0 no effect, 100 complete control), read-out: Plant response rating, Wheat, Spring): 15%
- pest or weed control at 31 g/ha (chickweed; Stellaria media, post-emergence, 31 g ai/ha, scale 0 to 100 (0 no effect, 100 complete control), read-out: Plant response rating, Chickweed): 60%
- pest or weed control at 62 g/ha (chickweed; Stellaria media, post-emergence, 62 g ai/ha, scale 0 to 100 (0 no effect, 100 complete control), read-out: Plant response rating, Chickweed): 70%
- pest or weed control at 125 g/ha (chickweed; Stellaria media, post-emergence, 125 g ai/ha, scale 0 to 100 (0 no effect, 100 complete control), read-out: Plant response rating, Chickweed): 85%
- pest or weed control at 250 g/ha (chickweed; Stellaria media, post-emergence, 250 g ai/ha, scale 0 to 100 (0 no effect, 100 complete control), read-out: Plant response rating, Chickweed): 90%
